Format in all cases: cell-based
The test system of test [1] is YAP/TAZ-TEAD transcription. The test is described as follows: Reporter gene assay for measuring the inhibition of YAP/TAZ-TEAD transcription (TEAD-responsive element luciferase reporter in Hek293T cells). The settings on record: Homo sapiens, HEK-293T; Hek293T cells transfected with TEAD-responsive luciferase reporter, 24 hours incubation. On the procedure:
Hek293T cells are cultured in DMEM supplemented with 10% fetal bovine serum, Sodium pyruvate, Sodium bicarbonate, L-glutamine. The cells are harvested and transiently transfected with TEAD-responsive element luciferase reporter. Transfected cells are plated in 384-wells plate containing pre-diluted compounds. After 24 hours incubation at 37° C./5% CO2, assay plates were cooled down to RT and levelled to an equal volume per well, prior to the addition of 25 uL luciferase substrate SteadyLite (Perkin Elmer)/well. The plate was shaken for 10 min at 600 rpm, centrifuged for 1 min at 500 rpm and measured with an Envision reader (PerkinElmer). The amount of relative light units produced by the TEAD reporter is used to calculated percent of inhibition.
The percent of reporter inhibition was calculated in the presence of a positive control inhibitor (100% inhibition) versus a condition with the presence of the vehicle basal activity of the reporter (0% inhibition). The ability of a test compound to inhibit this activity was determined as:
Percentage inhibition=[1−((RLU determined in the presence of vehicle−RLU determined for sample with test compound present) divided by (RLU determined in the presence of vehicle−RLU determined for sample with positive control inhibitor))]*100
The activities of example compounds tested are depicted in Table 6. The activity ranges A, B and C refer to IC50 values in the reporter gene assay as follows: “A”: IC50<1 μM; “B”: 1 μM≤IC50≤20 μM and “C”: IC50>20 μM; NT=not tested.
For orientation: A reporter such as luciferase makes a cellular process visible.

Another test relates to NCI-H226. Description: Mesothelioma cell line proliferation assay (ATPlite), NCI-H226. The settings on record: Homo sapiens, 144 h; NCI-H226 cells, 6 days with compound, cell viability by ATPlite. As for the experimental part:
(§1) Mesothelioma cell lines, NCI-H226 and NCI-H2052 (all sourced from the ATCC cell culture collection) are plated in 96-well plates (Corning® 96 Well White Polystyrene Microplate clear flat bottom, white polystyrene (TC-Treated)), at 1500 cells/well in full medium (RPMI 1640 ATCC modification with L-glutamine, HEPES, Phenol Red, Sodium Pyruvate, High glucose, Low sodium bicarbonate and 10% fetal bovine serum). Cells are incubated overnight at 37° C. in an incubator with 5% CO2. Then compounds, dissolved in DMSO, are added in dose-response. Cells are incubated with compound dilutions for another 6 days at 37° C. in an incubator with 5% CO2. Cell viability is quantitated using the ATPlite kit (Perkin-Elmer) and the luminescence is read-out using an Envision instrument (Perkin-Elmer). The amount of relative light units produced using the ATPlite kit is used to calculated percent of inhibition.
(§2) The activities of some example compounds are depicted in Table 7. The activity ranges A, B and C refer to EC50 values in the mesothelioma cell line proliferation assay as described as follows: “A”: EC50<1 μM; “B”: 1 μM≤EC50≤10 μM and “C”: EC50>10 μM; NT: not tested.

For a further test, the system named is NCI-H2052. Description: Mesothelioma cell line proliferation assay (ATPlite), NCI-H2052. The settings on record: Homo sapiens, 144 h; NCI-H2052 cells, 6 days with compound, cell viability by ATPlite. As for the experimental part: as §1, §2
A general note: ATP-based viability assays read luminescence as a measure of living cells.

EC50 data for twelve compounds are collected here from patent US20230202985A1, “Indoles, Indazoles, and Related Analogs for Inhibiting YAP/TAZ-TEAD” (THE KATHOLIEKE UNIVERSITEIT LEUVEN, priority 2021, published 2023).

One may read the EC50 as the concentration needed to bring the measured effect to its halfway point. In the case of `C=CC(=O)NCc1cc2ccccc2n1Cc1ccc(C(F)(F)F)cc1` [compound 31, N-((1-(4-(trifluoromethyl)benzyl)-1H-indol-2-yl)methyl)acrylamide], the half-maximal effective concentration (EC50) in test [1] is less than 1 µM; with NCI-H226, less than 1 µM; in the test on NCI-H2052, 1 to 10 µM.
As to `C=CC(=O)NCc1nn(-c2ccc(C(F)(F)F)cc2)c2cccnc12` [compound 40, N-((1-(4-(trifluoromethyl)phenyl)-1H-pyrazolo[4,3-b]pyridin-3-yl)methyl)acrylamide], the EC50 (in test [1]; in the test on NCI-H226; in the test on NCI-H2052) was less than 1 µM throughout.
As to `C=CC(=O)NCc1nn(-c2ccc(C(F)(F)F)cc2)c2ccc(Oc3ccccc3)cc12` [compound 49, N-[[5-phenoxy-1-[4-(trifluoromethyl)phenyl]indazol-3-yl]methyl]prop-2-enamide], the EC50 (in test [1]; in the test on NCI-H226; in the test on NCI-H2052) was less than 1 µM each time.
For the compound `C=CC(=O)NCc1nn(-c2ccc(C(F)(F)F)cc2)c2cc(OC3CC3)ccc12` [compound 50, N-[[6-(cyclopropoxy)-1-[4-(trifluoromethyl)phenyl]indazol-3-yl]methyl]prop-2-enamide], the EC50 (in test [1]; with NCI-H226; in the test on NCI-H2052) was less than 1 µM throughout.
In the case of `C=CC(=O)NCc1nn(-c2ccc(C(F)(F)F)cc2)c2ccc(OCc3ccccc3)cc12` [compound 54, N-[[5-benzyloxy-1-[4-(trifluoromethyl)phenyl]indazol-3-yl]methyl]prop-2-enamide], the EC50 (in test [1]; with NCI-H226; in the test with NCI-H2052) was less than 1 µM in each case.
Consider `C=CC(=O)NCc1nn(-c2ccc(C(F)(F)F)cc2)c2ccc(OCc3cc[nH]n3)cc12` [compound 58, N-[[5-(1H-pyrazol-3-ylmethoxy)-1-[4-(trifluoromethyl)phenyl]indazol-3-yl]methyl]prop-2-enamide], for which the concentration for a half-maximal effect (EC50) (in test [1]; in the test on NCI-H226; with NCI-H2052) was less than 1 µM each time.
`C=CC(=O)NCc1nn(-c2ccc(C(F)(F)F)cc2)c2cnccc12` [compound 59, N-[[1-[4-(trifluoromethyl)phenyl]pyrazolo[3,4-c]pyridin-3-yl]methyl]prop-2-enamide]: the EC50 (in test [1]; in the test with NCI-H226; with NCI-H2052) was less than 1 µM throughout.
With `C#CCOc1ccc2c(c1)c(CNC(=O)C=C)nn2-c1ccc(C(F)(F)F)cc1` [compound 63, N-[[5-prop-2-ynoxy-1-[4-(trifluoromethyl)phenyl]indazol-3-yl]methyl]prop-2-enamide], the EC50 (in test [1]; with NCI-H226; in the test on NCI-H2052) was less than 1 µM each time.
On to `C=CC(=O)NCc1nn(-c2ccc(C(F)(F)F)cc2)c2ccc(OCC3CC3)cc12` [compound 66, N-[[5-(cyclopropylmethoxy)-1-[4-(trifluoromethyl)phenyl]indazol-3-yl]methyl]prop-2-enamide], for which the EC50 (in test [1]; in the test with NCI-H226; in the test with NCI-H2052) was less than 1 µM in each case.
With `C=CC(=O)NCc1nn(-c2ccc(C(F)(F)F)cc2)c2ccc(C(F)(F)F)cc12` [compound 71, N-[[5-(trifluoromethyl)-1-[4-(trifluoromethyl)phenyl]indazol-3-yl]methyl]prop-2-enamide], the EC50 (in test [1]; in the test with NCI-H226; with NCI-H2052) was less than 1 µM throughout.
Take `C=CC(=O)NCc1nn(-c2ccc(C(F)(F)F)cc2)c2cc(C(F)(F)F)ccc12` [compound 74, N-[[6-(trifluoromethyl)-1-[4-(trifluoromethyl)phenyl]indazol-3-yl]methyl]prop-2-enamide]: the EC50 (in test [1]; in the test on NCI-H226; in the test with NCI-H2052) was less than 1 µM in each case.
`C=CC(=O)NCc1nn(C2CCC(F)(F)CC2)c2ccccc12` [compound 77, N-[[1-(4,4-difluorocyclohexyl)indazol-3-yl]methyl]prop-2-enamide]: the EC50 (in test [1]; in the test with NCI-H226; in the test on NCI-H2052) was less than 1 µM in each case.
